In assay [1] the test system is HCT-116. Briefly: Cytotoxicity in human HCT116 cells assessed as reduction in cell viability incubated for 72 hrs by MTT assay. The class given is functional, cell-based. The following applies: HCT-116, 72 h.
Assay [2] addresses T1, Tyrosine-protein phosphatase non-receptor type 1 (Homo sapiens) (UniProt P18031).
T1 sequence (whole entry): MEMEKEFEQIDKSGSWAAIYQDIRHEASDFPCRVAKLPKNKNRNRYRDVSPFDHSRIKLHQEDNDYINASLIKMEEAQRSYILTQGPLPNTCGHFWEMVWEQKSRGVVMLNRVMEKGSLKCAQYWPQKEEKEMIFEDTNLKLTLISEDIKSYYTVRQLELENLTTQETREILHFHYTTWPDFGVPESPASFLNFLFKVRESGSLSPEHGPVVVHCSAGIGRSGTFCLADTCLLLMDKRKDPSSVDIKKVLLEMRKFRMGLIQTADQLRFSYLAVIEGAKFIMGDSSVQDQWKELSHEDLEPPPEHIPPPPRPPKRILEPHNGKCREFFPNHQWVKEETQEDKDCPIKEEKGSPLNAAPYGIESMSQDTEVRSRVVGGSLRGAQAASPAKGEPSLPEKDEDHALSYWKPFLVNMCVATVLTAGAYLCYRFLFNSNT
Briefly: Inhibition of recombinant human GST-tagged PTP1B expressed in expressed in Escherichia coli BL21 cells at 10 uM pre-incubated for 5 mins before pNPP substrate addition and further incubated for 30 mins relative to untreated control.

Assay [3] has as its system HepG2. Briefly: Cytotoxicity in human HepG2 cells assessed as reduction in cell viability incubated for 72 hrs by MTT assay. The format is functional, cell-based. The following applies: HepG2, 72 h. For orientation: Tetrazolium assays rely on reduction of a dye to a coloured formazan, in cell work by metabolically active cells.
For assay [4], the system named is BGC-823. Briefly: Cytotoxicity in human BGC823 cells assessed as reduction in cell viability incubated for 72 hrs by MTT assay. The class given is functional, cell-based. The following applies: BGC-823, 72 h.
For assay [5], the system named is BV-2. Briefly: Antiinflammatory activity in mouse BV2 cells assessed as inhibition of LPS-induced nitric oxide production pretreated for 24 hrs followed by LPS-stimulation for 24 hrs by Griess assay. The class given is functional, cell-based.
For assay [6], the system named is MCF7. Briefly: Cytotoxicity in human MCF7 cells assessed as reduction in cell viability incubated for 72 hrs by MTT assay. The following applies: MCF7, 72 h. The format is functional, cell-based.
Assay [7] has as its system A549. Briefly: Cytotoxicity in human A549 cells assessed as reduction in cell viability incubated for 72 hrs by MTT assay. The class given is functional, cell-based. The following applies: A549, 72 h.

With `C=C(C)[C@H]1CC[C@@](C)(O)[C@@H]1/C=C/C(C)=C/[C@@H]1C[C@@]23[C@H](OCCC[C@@H]2/C(=C(/C)C=O)CC[C@]3(C)O)O1`, the IC50 in assay [1], in assay [3], in assay [4], in assay [5], in assay [6] and in assay [7] was more than 10 µM in each case. Also, the inhibition (usually the drop in the measured response relative to a control, in per cent) in assay [2] was 24.8%.

In the case of `C=C(C)[C@@H]1CC[C@](C)(O)[C@H]1/C=C/C(C)=C/[C@@H]1C[C@@]23[C@H](OCCC[C@@H]2/C(=C(\C)C=O)CC[C@]3(C)O)O1`, the IC50 in assay [1], in assay [3], in assay [4], in assay [5], in assay [6] and in assay [7] was more than 10 µM in each case. For the same compound, the inhibition in assay [2] is 33.4%.

For the compound `C=C(C)[C@H]1CC[C@@](C)(O)[C@@H]1/C=C/C(C)=C/[C@@H]1C[C@@]23[C@H](OCCC[C@@H]2/C(=C(\C)C=O)CC[C@]3(C)O)O1`, the IC50 in assay [1], in assay [3], in assay [4], in assay [5], in assay [6] and in assay [7] was more than 10 µM in each case. The inhibition in assay [2] worked out at 26.4%.

With `C=C(C)[C@H]1CC[C@@](C)(O)[C@@H]1/C=C/C(C)=C/[C@@H]1C[C@@]2([C@H](OC)O1)[C@H](CCCO)/C(=C(/C)C=O)CC[C@]2(C)O`, the IC50 in assay [1], in assay [3], in assay [4], in assay [5], in assay [6] and in assay [7] was more than 10 µM throughout. Also, the inhibition in assay [2] is -0.5%.

Regarding `C=C(C)[C@H]1CC[C@@](C)(O)[C@@H]1/C=C/C(C)=C/[C@@H]1C[C@@]2([C@H](OC)O1)[C@H](CCCO)/C(=C(\C)C=O)CC[C@]2(C)O`, the IC50 in assay [1], in assay [3], in assay [4], in assay [5], in assay [6] and in assay [7] was more than 10 µM each time. Moreover, the inhibition in assay [2] is 15.2%.

With `C=C(C)[C@@H]1CC[C@](C)(O)[C@H]1/C=C/C(C)=C/[C@@H]1C[C@@]2([C@H](OC)O1)[C@H](CCCO)/C(=C(\C)C=O)CC[C@]2(C)O`, the IC50 in assay [1], in assay [3], in assay [4], in assay [5], in assay [6] and in assay [7] was more than 10 µM each time. For the same compound, in assay [2], the inhibition was -1.8%.

As for `C=C(C)[C@@H]1CC[C@](C)(O)[C@H]1/C=C/C(C)=C/[C@@H]1C[C@@]23[C@H](OCCC[C@@H]2/C(=C(/C)C=O)CC[C@]3(C)O)O1`, the IC50 in assay [1], in assay [3], in assay [4], in assay [5], in assay [6] and in assay [7] was more than 10 µM each time. For the same compound, the inhibition in assay [2] is 16.5%.

On to `C=C(C)[C@H]1CC[C@@](C)(O)[C@@H]1/C=C/C(C)=C/[C@@H]1C[C@@]2([C@H](OCC)O1)[C@H](CCCO)/C(=C(\C)C=O)CC[C@]2(C)O`, for which the IC50 in assay [1], in assay [3], in assay [4], in assay [5], in assay [6] and in assay [7] was more than 10 µM each time. The inhibition in assay [2] was determined as 32.9%.

Consider `C=C(C)[C@@H]1CC[C@](C)(O)[C@H]1/C=C/C(C)=C/[C@@H]1C[C@@]2([C@H](OC)O1)[C@H](CCCO)/C(=C(/C)C=O)CC[C@]2(C)O`, for which the IC50 in assay [1], in assay [3], in assay [4], in assay [5], in assay [6] and in assay [7] was more than 10 µM each time. For the same compound, the inhibition in assay [2] is 23.5%.

Values taken from ChEMBL document CHEMBL4339246, “Iridal-Type Triterpenoids with a Cyclopentane Unit from the Rhizomes of Belamcanda chinensis” (J Nat Prod, 2019).
